The results in this text go back to ChEMBL document CHEMBL1201862, “PubChem BioAssay data set” (2004).

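Cultured in 96-well plates, cells were exposed to test compound for 48 hours across five concentrations. At the GI50, growth is halved.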 Activity calls are given as the source filed them. Cut-off read from the data, not from the text of the source: active = GI50 up to about 1.1 µM and inactive = higher.

Among the test systems are MDA-MB-435; HOP-92; Malme-3M; MDA-MB-231; 786-0; NCI/ADR-RES; Hs-578T; HCT-15; T47D; PC-3; SR; DU-145; MDA-N; M14; NCI-H460; TK-10; MCF7; RXF 393.
Holding throughout (experiment): growth of human tumour cells (NCI), 48 h

As to `Oc1[nH]c(Nc2cccc(CC(F)(F)F)c2)nc2ncnc1-2`, the GI50 with MDA-MB-435, in the test on HOP-92, with Malme-3M, in the test on MDA-MB-231, with 786-0 and with NCI/ADR-RES was > 100 µM (inactive) throughout. Moreover, the GI50 is > 100 µM (inactive) with Hs-578T; greater than 100 µM with HCT-15; > 100 µM (inactive) with T47D; > 100 µM (inactive) with PC-3; > 100 µM (inactive) in the test with SR; > 100 µM (inactive) with DU-145. In addition, the GI50 with MDA-N, in the test with M14, in the test on NCI-H460, in the test on TK-10 and in the test with MCF7 was > 100 µM (inactive) throughout.

Consider `O=[N+]([O-])/C(C(Cl)=C(Cl)Cl)=C1\Nc2ccccc2O1`, for which the GI50 in the test on MDA-MB-435 was 36.6 µM (inactive); in the test with RXF 393, > 100 µM (inactive); with HOP-92 it was 12 µM (inactive); in the test with Malme-3M, 27.9 µM (inactive); in the test on MDA-MB-231, 44.3 µM (inactive); in the test on 786-0, 17 µM (inactive). The GI50 in the test with Hs-578T is 32.3 µM (inactive); in the test on HCT-15 it was greater than 100 µM; in the test with T47D, > 100 µM (inactive); in the test with PC-3, 70.5 µM (inactive); in the test on SR, 24.9 µM (inactive); in the test on DU-145 it was > 100 µM (inactive). In addition, the GI50 in the test with MDA-N is 45.4 µM (inactive); in the test with M14, > 100 µM (inactive); with NCI-H460 it was > 100 µM (inactive); in the test with TK-10, > 100 µM (inactive); in the test on MCF7, 40.2 µM (inactive).

Turning to `Nc1nc(SCCc2ccccc2)nc2nc3c(c(-c4ccccc4)c12)CCCC3`, the GI50 with MDA-MB-435 is > 100 µM (inactive); with RXF 393, 24.3 µM (inactive); with Malme-3M, > 100 µM (inactive); in the test on MDA-MB-231, > 100 µM (inactive); in the test with NCI/ADR-RES it was > 100 µM (inactive); in the test on Hs-578T it was 8.65 µM (inactive). Besides, the GI50 in the test with HCT-15 was greater than 100 µM; in the test on T47D it was > 100 µM (inactive); in the test with PC-3, > 100 µM (inactive); with DU-145 it was > 100 µM (inactive); with MDA-N, > 100 µM (inactive); in the test on M14, > 100 µM (inactive). For the same molecule, the GI50 in the test on NCI-H460, in the test on TK-10 and in the test on MCF7 was > 100 µM (inactive) throughout.

Turning to `Cc1[nH]c(-c2ccccc2)c(O)c1C(=O)OC1CC(C)CCC1C(C)C` (centres undefined), the GI50 was 14.8 µM (inactive) in the test with MDA-MB-435; 11.7 µM (inactive) in the test on RXF 393; 17.6 µM (inactive) in the test on HOP-92; 18.7 µM (inactive) in the test with Malme-3M; 15.5 µM (inactive) with MDA-MB-231; 15.3 µM (inactive) with 786-0. In addition, the GI50 in the test on NCI/ADR-RES is 14.7 µM (inactive); in the test with Hs-578T, 18.3 µM (inactive); in the test with HCT-15 it was 17.8 µM; in the test with T47D, 13.7 µM (inactive); with PC-3, 13.8 µM (inactive); with SR, 8.51 µM (inactive). The GI50 in the test with DU-145 was 15.8 µM (inactive); in the test with MDA-N, 16.3 µM (inactive); with M14 it was 15.6 µM (inactive); in the test on NCI-H460 it was 15.3 µM (inactive); in the test with MCF7 it was 3.91 µM (inactive).

For `C[C@@H](O)C(=O)N1[C@@H]2CC3CC[C@]2(CS1(=O)=O)C3(C)C`, the GI50 is 63.8 µM (inactive) in the test with MDA-MB-435; > 100 µM (inactive) in the test on RXF 393; 66.1 µM (inactive) in the test with HOP-92; > 100 µM (inactive) in the test with MDA-MB-231; 52.8 µM (inactive) in the test on 786-0; > 100 µM (inactive) with NCI/ADR-RES. For the same molecule, the GI50 in the test with HCT-15 was 56.6 µM; in the test on T47D, > 100 µM (inactive); in the test on PC-3, 96.8 µM (inactive); with SR, 18 µM (inactive); with DU-145, 88.1 µM (inactive); in the test on M14, 93.5 µM (inactive). The GI50 in the test on NCI-H460 was 85.9 µM (inactive); in the test with TK-10 it was > 100 µM (inactive); with MCF7, > 100 µM (inactive).

On to `COn1oc(=O)c2ccccc21`, for which the GI50 is > 100 µM (inactive) in the test on MDA-MB-435; > 100 µM (inactive) with RXF 393; > 100 µM (inactive) in the test with HOP-92; 91.2 µM (inactive) in the test on Malme-3M; > 100 µM (inactive) in the test with MDA-MB-231; > 100 µM (inactive) in the test on 786-0. Besides, the GI50 was > 100 µM (inactive) in the test on NCI/ADR-RES; > 100 µM (inactive) with Hs-578T; greater than 100 µM with HCT-15; > 100 µM (inactive) in the test with PC-3; > 100 µM (inactive) in the test with DU-145; > 100 µM (inactive) in the test with MDA-N. Also, the GI50 in the test on M14, with NCI-H460, in the test on TK-10 and in the test on MCF7 was > 100 µM (inactive) each time.

As to `CON(C)c1nc(N)c(C#N)c(C#N)c1C#N`, the GI50 with MDA-MB-435, in the test on RXF 393, with Malme-3M, in the test with MDA-MB-231, with NCI/ADR-RES and in the test with Hs-578T was > 10 µM (inactive) in each case. Also, the GI50 was greater than 10 µM in the test on HCT-15; > 10 µM (inactive) in the test with T47D; > 10 µM (inactive) with PC-3; > 10 µM (inactive) with SR; > 10 µM (inactive) in the test on DU-145; > 10 µM (inactive) in the test with MDA-N. Besides, the GI50 in the test on M14, with NCI-H460, with TK-10 and in the test on MCF7 was > 10 µM (inactive) throughout.

Turning to `C/C(=C\c1ccccc1)n1c(=O)cc(C)n1C`, the GI50 with MDA-MB-435, with RXF 393, in the test with HOP-92, in the test on NCI/ADR-RES, in the test with Hs-578T and in the test with T47D was > 100 µM (inactive) in each case. Further, the GI50 in the test on PC-3, in the test with DU-145, with MDA-N, in the test with M14, in the test on NCI-H460 and in the test on TK-10 was > 100 µM (inactive) throughout. Also, the GI50 in the test with MCF7 is > 100 µM (inactive).

Turning to `Cc1cc([N+](=O)[O-])ccc1/N=N/C(=O)NNc1ccc([N+](=O)[O-])cc1C`, the GI50 in the test with MDA-MB-435 was 12.8 µM (inactive); in the test with Malme-3M, 17.3 µM (inactive); in the test with MDA-MB-231, > 10 µM (inactive); in the test with 786-0, 16.9 µM (inactive); in the test with HCT-15 it was 19.1 µM; with T47D, 15.3 µM (inactive). Moreover, the GI50 is 13.5 µM (inactive) in the test with PC-3; 20.7 µM (inactive) in the test on SR; 16.5 µM (inactive) with DU-145; 15.7 µM (inactive) in the test on MDA-N; 13.6 µM (inactive) in the test with M14; 17.6 µM (inactive) in the test with NCI-H460. In addition, the GI50 was 16.7 µM (inactive) in the test with TK-10 and 3.18 µM (inactive) with MCF7.

In the case of `COc1cc2c(cc1OCCCC(=O)Nc1cc(C(=O)Nc3cc(C(=O)Nc4cc(C(=O)NCCCN(C)C)n(C)n4)n(C)n3)n(C)n1)N=CC1CCCN1C2=O` (centres undefined), the GI50 with MDA-MB-435 was 20.1 µM (inactive); with RXF 393, 22.4 µM (inactive); with HOP-92, 4.68 µM (inactive); in the test with Malme-3M, 10.8 µM (inactive); in the test with MDA-MB-231, 24.2 µM (inactive); in the test with 786-0 it was 4.81 µM (inactive). Besides, the GI50 was 31.8 µM (inactive) with NCI/ADR-RES; 39.5 µM (inactive) in the test on Hs-578T; 5.69 µM in the test on HCT-15; 56 µM (inactive) with T47D; 31.3 µM (inactive) in the test with PC-3; 2.77 µM (inactive) in the test on SR. In addition, the GI50 in the test with DU-145 was 35.4 µM (inactive); in the test on M14 it was 28 µM (inactive); with NCI-H460 it was 41.4 µM (inactive); in the test with TK-10 it was 20.7 µM (inactive); in the test on MCF7, 21.1 µM (inactive).

For `CC(C)(C)OC(=O)/C=C/C(=O)O/C=C/[N+](=O)[O-]`, the GI50 in the test on MDA-MB-435, in the test on RXF 393, with HOP-92, with MDA-MB-231, in the test with 786-0 and in the test with Hs-578T was > 100 µM (inactive) each time. Also, the GI50 is greater than 100 µM with HCT-15; 18.2 µM (inactive) in the test with SR; > 100 µM (inactive) in the test with DU-145; > 100 µM (inactive) in the test on MDA-N; > 100 µM (inactive) in the test on M14; > 100 µM (inactive) with NCI-H460. The GI50 in the test on TK-10 and with MCF7 was > 100 µM (inactive) in each case.

For `Cc1c(N)nc([C@H](CC(N)=O)NC[C@H](N)C(N)=O)nc1C(=O)N[C@H](C(=O)N[C@H](C)[C@@H](O)CC(=O)N[C@H](C(=O)NC(O[C@@H]1O[C@@H](C)[C@@H](N)[C@@H](O)[C@H]1O)C(O)c1nc(-c2nc(C(=O)NCCCCN)cs2)cs1)[C@@H](C)O)[C@@H](O[C@@H]1O[C@@H](CO)[C@@H](O)[C@H](O)[C@@H]1O[C@H]1O[C@H](CO)[C@@H](O)[C@H](OC(N)=O)[C@@H]1O)c1c[nH]cn1` (some centres undefined), the GI50 was > 50 µM (inactive) in the test on MDA-MB-435; 7.67 µM (inactive) with RXF 393; 12.9 µM (inactive) with HOP-92; > 50 µM (inactive) in the test with MDA-MB-231; 7.89 µM (inactive) in the test with NCI/ADR-RES; 18.7 µM (inactive) in the test on Hs-578T. For the same molecule, the GI50 in the test with HCT-15 is greater than 32.2 µM; in the test with T47D, > 50 µM (inactive); in the test with PC-3, > 50 µM (inactive); in the test on SR it was 0.0316 µM (active); in the test with DU-145, > 27.7 µM (inactive); in the test with MDA-N it was > 50 µM (inactive). The GI50 in the test on M14 is > 36.9 µM (inactive); in the test on NCI-H460, 0.145 µM (active); in the test on TK-10, > 50 µM (inactive); in the test with MCF7, > 39.9 µM (inactive).

`Oc1cc(-c2ccc(Cl)cc2)nc2ncccc12`: the GI50 in the test on HOP-92 was 41.2 µM (inactive); in the test on Malme-3M, 28.6 µM (inactive); with MDA-MB-231, 64.6 µM (inactive); with NCI/ADR-RES it was 36 µM (inactive); in the test with Hs-578T, 56.2 µM (inactive); in the test on HCT-15 it was 27.4 µM. Besides, the GI50 is 61.7 µM (inactive) with T47D; 5.56 µM (inactive) in the test on SR; > 100 µM (inactive) with DU-145; 40.5 µM (inactive) in the test on M14; 94.4 µM (inactive) in the test on TK-10; 16.6 µM (inactive) with MCF7.
